Source: US10344019B2 (priority 2010, dated 2019)
Where two headings read alike, the source gives them in different places.

Key:
Assay type in all cases: cell-based
[1] = test system: HCV 1a RLuc cells (dicistronic genotype 1a H77 replicon, RLuc reporter); experiment: microbe, parasite or virus in culture; details: Hepatitis C virus, read-out: 1a
Method in brief: (§1)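 Renilla luciferase HCV replicon cells: dicistronic 1b Con1, 1a H77 or 2a JFH-1 replicons, or a JFH-1 chimera carrying J6 NS5A (M31 present). Compound in DMSO serial dilutions, 72 h incubation, then lysis and luciferase read. EC50 by non-linear regression.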

[2] = test system: HCV 1b RLuc cells (dicistronic genotype 1b Con1 replicon, RLuc reporter); experiment: microbe, parasite or virus in culture; details: Hepatitis C virus, read-out: 1b (nM)
Method in brief: as §1

[3] = test system: HCV 2a JFH-1 Rluc cells (dicistronic genotype 2a JFH-1 replicon, RLuc reporter); experiment: microbe, parasite or virus in culture; details: Hepatitis C virus, genotype 2a JFH-1 replicon, read-out: 2a JFH
Method in brief: as §1

[4] = test system: HCV 2b Rluc cells (NS5A chimeric genotype 2a JFH-1 replicon with genotype 2b MD2b-1 NS5A gene, M31 present); experiment: microbe, parasite or virus in culture; details: Hepatitis C virus, read-out: 2b
Method in brief: (§2)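 Replicon cells stably carrying the listed RLuc-encoding dicistronic replicons were seeded and treated with DMSO serial dilutions of compound (10 mM stocks) diluted into culture medium. After 72 h, cells were lysed and Renilla luciferase activity measured. EC50 was derived by non-linear regression.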

[5] = test system: HCV 3a RLuc cells (NS5A chimeric genotype 1b Con1 replicon with consensus genotype 3a NS5A gene); experiment: microbe, parasite or virus in culture
Method in brief: as §2

[6] = test system: HCV 4a Rluc cells (NS5A chimeric genotype 1b Con1 replicon with genotype 4a NS5A gene); experiment: microbe, parasite or virus in culture; details: Hepatitis C virus, read-out: 4a
Method in brief: as §2

[7] = test system: HCV 2a Rluc cells (NS5A chimeric genotype 2a JFH-1 replicon with genotype 2a J6 strain NS5A gene, M31 present); experiment: HCV replicon reporter assay, genotype 2a J6 (M31 present); details: Hepatitis C virus, read-out: 2a J6
Method in brief: as §1

[8] = genotype 1a H77 replicon, RLuc reporter
[9] = Hepatitis C virus, read-out: 3a, genotype 3a NS5A chimeric 1b Con1 replicon
[10] = Hepatitis C virus, read-out: 3a, genotype 3a replicon

Structure (SMILES)	EC50 [1, 8]	EC50 [2]	EC50 ([3]; RLuc reporter)	EC50 [4]	EC50 [5, 9]	EC50 [6]	EC50 [7]	EC50 ([5]; read-out: 3a, genotype 3a NS5A chimeric 1b Con1 replicon)	EC50 ([1]; genotype 1a replicon)	EC50 [3]	EC50 [5, 10]
COC(=O)N[C@@H](C(=O)N1C[C@@H](OC)C[C@H]1c1ncc(-c2ccc(-c3ccc4cc(-c5cnc([C@@H]6CCCN6C(=O)[C@H](C(C)C)N(C)C(=O)OC)[nH]5)ccc4c3)cc2)[nH]1)c1ccccc1 [Example 122]	0.001 to 0.999 nM	0.009 nM	0.001 to 0.999 nM	> 44 nM	0.001 to 0.99 nM	0.001 to 0.99 nM	> 44 nM	–	–	–	–
COC(=O)N[C@H](C(=O)N1C[C@@H](OC)C[C@H]1c1ncc(-c2ccc(-c3ccc4cc(-c5cnc([C@@H]6CCCN6C(=O)[C@H](NC(=O)OC)c6ccccc6)[nH]5)ccc4c3)cc2)[nH]1)C(C)C [Example 123]	0.001 to 0.999 nM	0.014 nM	0.001 to 0.999 nM	> 44 nM	0.001 to 0.99 nM	0.001 to 0.99 nM	> 44 nM	–	–	–	–
COC(=O)N[C@H](C(=O)N1CCC[C@H]1c1ncc(-c2ccc3cc(-c4ccc(-c5cnc([C@@H]6CCCN6C(=O)[C@H](NC(=O)OC)c6ccccc6)[nH]5)cc4)ccc3c2)[nH]1)[C@@H](C)OC(C)F (some centres unmarked) [Example 128]	0.001 to 0.999 nM	0.005 nM	0.001 to 0.999 nM	> 44 nM	0.001 to 0.99 nM	0.001 to 0.99 nM	> 44 nM	–	–	–	–
COC(=O)N[C@H](C(=O)N1CCC[C@H]1c1ncc(-c2ccc3cc(-c4ccc(-c5cnc([C@@H]6C[C@H](F)CN6C(=O)[C@H](NC(=O)OC)c6ccccc6)[nH]5)cc4)ccc3c2)[nH]1)C(C)C [Example 129]	0.001 to 0.999 nM	0.007 nM	0.001 to 0.999 nM	> 44 nM	0.001 to 0.99 nM	0.001 to 0.99 nM	> 44 nM	–	–	–	–
CCO[C@H]1C[C@@H](c2ncc(-c3ccc(-c4ccc5cc(-c6cnc([C@@H]7CCCN7C(=O)[C@@H](NC(=O)OC)C(C)C)[nH]6)ccc5c4)cc3)[nH]2)N(C(=O)[C@H](NC(=O)OC)c2ccccc2)C1 [Example 157]	0.001 to 0.999 nM	0.008 nM	0.001 to 0.999 nM	1 to 44 nM	1 to 4.99 nM	0.001 to 0.99 nM	> 44 nM	–	–	–	–
COC(=O)N[C@H](C(=O)N1CCC[C@H]1c1ncc(-c2ccc3cc(-c4ccc(-c5cnc([C@@H]6C[C@@H](C)CN6C(=O)[C@H](NC(=O)OC)c6ccccc6)[nH]5)cc4)ccc3c2)[nH]1)C(C)C [Example 159]	0.001 to 0.999 nM	0.006 nM	0.001 to 0.999 nM	1 to 44 nM	0.001 to 0.99 nM	0.001 to 0.99 nM	> 44 nM	–	–	–	–
COC(=O)N[C@H](C(=O)N1CCC[C@H]1c1ncc(-c2ccc3cc(-c4ccc5c(ccc6nc([C@@H]7CCCN7C(=O)[C@H](NC(=O)OC)c7ccccc7)[nH]c65)c4)ccc3c2)[nH]1)C(C)C [Example 169]	0.001 to 0.999 nM	0.006 nM	0.001 to 0.999 nM	> 44 nM	0.001 to 0.99 nM	0.001 to 0.99 nM	> 44 nM	–	–	–	–
COC(=O)N[C@H](C(=O)N1CCC[C@H]1c1ncc(-c2ccc3cc(-c4ccc5c(c4)CCc4nc([C@@H]6CCCN6C(=O)[C@@H](NC(=O)OC)C6CCOCC6)[nH]c4-5)ccc3c2)[nH]1)C(C)C [Example 198]	0.001 to 0.999 nM	0.018 nM	0.001 to 0.999 nM	> 44 nM	–	0.001 to 0.99 nM	> 44 nM	1 to 4.99 nM	–	–	–
COC(=O)N[C@H](C(=O)N1CCC[C@H]1c1nc2ccc3cc(-c4ccc5cc(-c6cnc([C@@H]7CCCN7C(=O)[C@H](NC(=O)OC)c7ccccc7)[nH]6)ccc5c4)ccc3c2[nH]1)C(C)C [Example 206]	0.001 to 0.999 nM	0.005 nM	0.001 to 0.999 nM	> 44 nM	0.001 to 0.99 nM	0.001 to 0.99 nM	1 to 44 nM	–	–	–	–
COC(=O)N[C@H](C(=O)N1CCC[C@H]1c1ncc(-c2ccc3cc(-c4ccc(-c5cnc([C@@H]6CC(F)(F)CN6C(=O)[C@H](NC(=O)OC)c6ccccc6)[nH]5)cc4)ccc3c2)[nH]1)C(C)C [Example 260]	0.001 to 0.999 nM	0.004 nM	0.001 to 0.999 nM	> 44 nM	0.001 to 0.99 nM	0.001 to 0.99 nM	> 44 nM	–	–	–	–
COC(=O)N[C@H](C(=O)N1CCC[C@H]1c1ncc(-c2ccc3c(ccc4cc(-c5cnc([C@@H]6CCCN6C(=O)[C@@H](NC(=O)OC)C(C)C)[nH]5)ccc43)c2)[nH]1)C(C)C [Example 282]	0.001 to 0.999 nM	0.007 nM	0.001 to 0.999 nM	> 44 nM	0.001 to 0.99 nM	0.001 to 0.99 nM	> 44 nM	–	–	–	–
COC(=O)N[C@H](C(=O)N1[C@@H]2CC[C@@H](C2)[C@H]1c1nc2ccc3cc(-c4ccc5c(ccc6nc([C@@H]7CCCN7C(=O)[C@@H](NC(=O)OC)C7CCOCC7)[nH]c65)c4)ccc3c2[nH]1)C(C)C [Example 298]	–	0.077 nM	–	1 to 44 nM	–	0.001 to 0.99 nM	0.001 to 0.999 nM	–	0.001 to 0.999 nM	0.001 to 0.999 nM	0.001 to 0.99 nM
COC(=O)N[C@H](C(=O)N1[C@@H]2CC[C@@H](C2)[C@H]1c1nc2ccc3cc(-c4ccc5c(ccc6nc([C@@H]7CCCN7C(=O)[C@H](NC(=O)OC)c7ccccc7)[nH]c65)c4)ccc3c2[nH]1)C(C)C [Example 314]	–	0.026 nM	–	0.001 to 0.999 nM	–	0.001 to 0.99 nM	0.001 to 0.999 nM	–	0.001 to 0.999 nM	0.001 to 0.999 nM	0.001 to 0.99 nM
COC(=O)N[C@H](C(=O)N1CC2(C[C@H]1c1nc3ccc4cc(-c5ccc6c(ccc7nc([C@@H]8CCCN8C(=O)[C@H](NC(=O)OC)c8ccccc8)[nH]c76)c5)ccc4c3[nH]1)OCCO2)C(C)C [Example 323]	–	0.043 nM	–	0.001 to 0.999 nM	–	0.001 to 0.99 nM	0.001 to 0.999 nM	–	0.001 to 0.999 nM	0.001 to 0.999 nM	0.001 to 0.99 nM
COC(=O)N[C@H](C(=O)N1CCC[C@H]1c1nc(Cl)c(-c2ccc(-c3ccc(-c4[nH]c([C@@H]5CCCN5C(=O)[C@@H](NC(=O)OC)C(C)C)nc4Cl)cc3)cc2)[nH]1)C(C)C [Example 352]	–	0.011 nM	–	1 to 44 nM	–	0.001 to 0.99 nM	1 to 44 nM	–	0.001 to 0.999 nM	0.001 to 0.999 nM	0.001 to 0.99 nM
COC(=O)N[C@H](C(=O)N1CC2(C[C@H]1c1nc3c([nH]1)-c1ccc(-c4ccc5c(ccc6nc([C@@H]7CCCN7C(=O)[C@H](NC(=O)OC)c7ccccc7)[nH]c65)c4)cc1CC3)OCCO2)C(C)C [Example 355]	–	0.095 nM	–	1 to 44 nM	–	0.001 to 0.99 nM	1 to 44 nM	–	0.001 to 0.999 nM	0.001 to 0.999 nM	0.001 to 0.99 nM
COC(=O)N[C@H](C(=O)N1CC2(C[C@H]1c1nc3ccc4cc(-c5ccc6c(ccc7nc([C@@H]8C[C@H]9C[C@H]9N8C(=O)[C@H](NC(=O)OC)c8ccccc8)[nH]c76)c5)ccc4c3[nH]1)OCCO2)C(C)C [Example 356]	–	0.022 nM	–	0.001 to 0.999 nM	–	0.001 to 0.99 nM	0.001 to 0.999 nM	–	0.001 to 0.999 nM	0.001 to 0.999 nM	0.001 to 0.99 nM
